Measured values reported in BindingDB's records for doi:10.1016/j.bmcl.2009.02.015 (Pfizer, 2009).

Molecular target: Cyclin-dependent kinase 2 (Homo sapiens) (UniProt P24941)
Assay: Inhibition of CDK2

SMILES | IC50 [nM]
COc1cccc(COc2ccc3sc4c(c3c2)NC[C@@H](C)NC4=O)c1 [(R)-3-(3-Methoxy-benzyloxy)-7-methyl-5,6,7,8-tetrahydro-10-thia-5,8-diaza-benzo[a]azulen-9-one] | 64
COc1ccc2sc3c(c2c1)NC[C@@H](CN(C)Cc1ccccc1)NC3=O [(S)-7-[(Benzyl-methyl-amino)-methyl]-3-methoxy-5,6,7,8-tetrahydro-10-thia-5,8-diaza-benzo[a]azulen-9-one] | 3170
C[C@@H]1CNc2c(sc3ccc(O)cc23)C(=O)N1 [(R)-3-Hydroxy-7-methyl-5,6,7,8-tetrahydro-10-thia-5,8-diaza-benzo[a]azulen-9-one] | 26
COC(=O)COc1ccc2sc3c(c2c1)NC[C@@H](C)NC3=O [((R)-7-Methyl-9-oxo-6,7,8,9-tetrahydro-5H-10-thia-5,8-diaza-benzo[a]azulen-3-yloxy)-acetic acid methyl ester] | 3090
COc1ccc2sc3c(c2c1)NC[C@@H](CNCc1ccccc1)NC3=O [(R)-7-(Benzylamino-methyl)-3-methoxy-5,6,7,8-tetrahydro-10-thia-5,8-diaza-benzo[a]azulen-9-one] | 2700
COc1ccc2sc3c(c2c1)CCCNC3=O [3-Methoxy-5,6,7,8-tetrahydro-10-thia-8-aza-benzo[a]azulen-9-one] | 360
COc1ccc2sc3c(c2c1)SCCNC3=O | 150
CC(C)COc1ccc2sc3c(c2c1)NC[C@@H](C)NC3=O [(R)-3-Isobutoxy-7-methyl-5,6,7,8-tetrahydro-10-thia-5,8-diaza-benzo[a]azulen-9-one] | 11

Results, then the compound that gave them:

IC50 [nM] | SMILES
146 | COc1ccc2sc3c(c2c1)NC[C@@H](CN)NC3=O [(R)-7-Aminomethyl-3-methoxy-5,6,7,8-tetrahydro-10-thia-5,8-diaza-benzo[a]azulen-9-one]
25 | COc1ccc2sc3c(c2c1)NC[C@@H](CO)NC3=O [(S)-7-Hydroxymethyl-3-methoxy-5,6,7,8-tetrahydro-10-thia-5,8-diaza-benzo[a]azulen-9-one]
2600 | CCCNC[C@@H]1CNc2c(sc3ccc(OC)cc23)C(=O)N1 [(R)-3-Methoxy-7-propylaminomethyl-5,6,7,8-tetrahydro-10-thia-5,8-diaza-benzo[a]azulen-9-one]
52 | C[C@@H]1CNc2c(sc3ccc(OCC4CC4)cc23)C(=O)N1 [(R)-3-Cyclopropylmethoxy-7-methyl-5,6,7,8-tetrahydro-10-thia-5,8-diaza-benzo[a]azulen-9-one]
81 | COCCOc1ccc2sc3c(c2c1)NC[C@@H](C)NC3=O [(R)-3-(2-Methoxy-ethoxy)-7-methyl-5,6,7,8-tetrahydro-10-thia-5,8-diaza-benzo[a]azulen-9-one]
3100 | CCNC[C@@H]1CNc2c(sc3ccc(OC)cc23)C(=O)N1 [(R)-7-Ethylaminomethyl-3-methoxy-5,6,7,8-tetrahydro-10-thia-5,8-diaza-benzo[a]azulen-9-one]
160 | COc1ccc2sc3c(c2c1)NCCNC3=O [3-Methoxy-5,6,7,8-tetrahydro-10-thia-5,8-diaza-benzo[a]azulen-9-one]
